In brackets after ≈: the same amount, converted by molar mass. Like-named read-outs stand apart in the source and are kept apart here.
What was measured:
different parasites = system: different parasites; parameters: method as in PMID 32196500; conditions: cited from earlier work
[1] = system: epimastigotes of T. cruzi (CL strain, clone B5); assay: Epimastigote susceptibility assay (monotherapy); format: cell-based, Trypanosoma cruzi; conditions: for IC50: Trypanosoma cruzi, CLB strain, 72 h at 28 °C, mean ± SD, read-out: IC50 (µM) in epimastigotes of T. cruzi; for activity against the extracellular and replicative forms of T. cruzi (in words): epimastigotes
Procedure: The CL-B5 strain was stably transfected with the Escherichia coli β-galactosidase gene (lacZ) and routinely maintained in exponential growth by weekly passages. Trypomastigotes of the CL-B5 strain were obtained as previously reported.
The screening assays were performed in 96-well microplates (WWR Int LLC) containing serially diluted concentrations of each compound and seeded with 2.5 × 10^5 epimastigotes/mL harvested during the exponential growth phase. Growth, medium, and drug blanks were used in each assay as controls. An internal control of the reference drug, benznidazole, was also included. After 72 h at 28 °C, 50 µL of the substrate chlorophenol red-β-D-galactopyranoside (CPRG; Roche) diluted in 0.9% Triton X-100 solution (EMD, Darmstadt, Germany) were added at a final concentration of 200 µM. Then, after 3 h at 37 °C, measurements were performed in a scanning multiwell spectrophotometer (ELISA Multiskan Reader, BioTek Instruments, Inc., Winooski, VT, USA) at 595 nm. Each concentration was tested in triplicate and the experiments were performed three times independently. The efficacy of the compounds was calculated by determining the percentage of epimastigote growth (% EG value) as follows:(1) % Epimastigote growth=(AE−AEB)/(AC−ACB)×100 where AE is the absorbance of the experimental group, AEB the absorbance of the drug blank, AC the absorbance of the control group, and ACB the absorbance of the culture medium blank. The IC50 values (the drug concentration that eliminates 50% of the parasites) were determined for each compound using the GraphPad Prism software (Version 5.0.0 for Windows, GraphPad Software, San Diego, CA, USA).

[2] = Cytotoxicity assay (resazurin) in L-929 fibroblasts; format: cell-based, mouse; conditions: mouse, L-929 fibroblasts (NCTC clone 929); L-929, 16 µM, n = 9; read-out: % Cytotoxicity ± SD
Description: (§1) Mouse L-929 fibroblasts (NCTC clone 929, ECACC 88102702) were used for both drug toxicity and infection assays. Cell line was obtained from Dr. Concepció Soler, Dept. Pathology & Experimental therapeutics, Faculty of Medicine and Health Sciences, University of Barcelona, Spain. Human hepatocarcinoma Hep G2 cells (American Type Culture Collection (ATCC HB-8065)) were employed only in the drug toxicity assays and were obtained from Dr. Neus Agell, Cell Biology Research Group, Faculty of Medicine and Health Sciences, University of Barcelona, Spain.
(§2) Cells were seeded by trypsinization in 96-well microplates (L-929: 4 × 10^3 cells/well; Hep G2: 1.5 × 10^4 cells/well) and incubated for 24 h at 37 °C to allow cell attachment. On the following day, the medium was discarded and replaced with a fresh medium containing the different concentrations of the drugs. Hep G2 cells were treated with concentrations of 100, 10, and 1 µM of the different drugs, while L-929 cells were treated with a wider range of concentrations in order to calculate the IC50 value (the drug concentration that inhibits 50% of cell growth). Medium, growth, and drug blanks were used in each test as controls. Plates were incubated again for another 24 h. After treatment, 20 µL of resazurin diluted in 1X phosphate-buffered saline (PBS; Sigma Aldrich) was added at a final concentration of 70 µM. The plates were incubated for another 24 h, after which fluorescence was measured in a microplate reader (FLUOstar OPTIMA, BMG LABTECH GmbH, Ortenberg, Germany) at an excitation wavelength of 530 nm and an emission wavelength of 590 nm. Each concentration was tested in triplicate and the experiments were repeated three times independently. Results indicated the percentage of toxicity (% T value). (3) % Toxicity=100−(AE−AEB)/(AC−ACB)×100 where AE is the absorbance of the experimental group, AEB the absorbance of the drug blank, AC the absorbance of the untreated cells, and ACB the absorbance of the culture medium blank. For the L-929 fibroblasts, the IC50 values (the drug concentration that inhibits 50% of cell growth) were calculated for each compound using the GraphPad Prism software.

[3] = system: murine L-929 fibroblasts (NCTC clone 929); assay: as above; format: cell-based, mouse; conditions: Mus musculus, L929; read-out: IC50 (µM) L-929 cell growth inhibition
Description: as §1, §2

[4] = POPC vesicles, ref 2 (Gianotti et al., Int. J. Mol. Sci., 2020), cited from earlier work
Plasmodium yoelii = system: Plasmodium yoelii; parameters: method as in PMID 26305125; conditions: murine model; cited from earlier work
[5] = Transmembrane anion transport (chloride efflux) in POPC vesicles; conditions: for anionophore activity (in words): chloride efflux
Procedure: The transmembrane anion transport activity of the compounds was explored in phospholipid (1-palmitoyl-2-oleoyl-sn-glycero-3-phosphocholine (POPC)) vesicles. Chloride efflux from chloride loaded vesicles was monitored using a chloride selective electrode. A solution of the studied compound in DMSO, usually 5 µL to avoid the influence of the organic solvent during the experiments, was added, and once the experiment was finished, a surfactant (Triton-X, 10% dispersion in water, 20 µL) was used to lyse the vesicles and release all the encapsulated chloride. This value was taken as 100% release and used as such. The experiments were repeated using different concentrations of the studied compounds and normalized chloride efflux at […] against the concentration of compound plotted. The data were then fitted with the Hill equation and an EC50 parameter, representing the concentration of compound eliciting 50% of chloride release was calculated. Assays in which the external medium was nitrate or bicarbonate were performed.

Enterococcus faecalis = conditions: cited from earlier work
Escherichia coli = conditions: cited from earlier work
Pseudomonas aeruginosa = conditions: cited from earlier work
[6] = system: epimastigotes of T. cruzi (CL strain, clone B5); parameters: method as in PMID 31210760; conditions: read-out: IC50 against epimastigotes of T. cruzi (earlier study); cited from earlier work
[7] = external bicarbonate, read-out: EC50 (µM) HCO3–/Cl–
[8] = external nitrate, read-out: EC50 (µM) NO3–/Cl–

Cc1nn(C)c(COc2ccc(N3CCN(S(=O)(=O)N(C)C)CC3)cc2)c1-c1cccc2c(CCCOc3cccc4ccccc34)c(C(=O)O)n(CCN3CCOCC3)c12 [Compound A-1210477]
effect on the viability of different parasites (in words) (different parasites): do not have an effect

Cc1c(-c2ccc(N3CCc4cccc(C(=O)Nc5nc6ccccc6s5)c4C3)nc2C(=O)O)cnn1CC12CC3CC(CC(C3)C1)C2 [Compound A-1331852]
effect on the viability of different parasites (in words) (different parasites): do not have an effect

Cc1c(-c2c(-c3ccc(F)o3)sc3ncnc(O[C@H](Cc4ccccc4OCc4ccnn4CC(F)(F)F)C(=O)O)c23)ccc(OCCN2CCN(C)CC2)c1Cl [Compound S63845]
effect on the viability of different parasites (in words) (different parasites): do not have an effect

CCCCn1cc(-c2cc(OC)c(/C=C3\N=C(C)C=C3C)[nH]2)nn1 [EH123]
Selectivity index (SI), Epimastigotes ([1]; IC50 for L-929 fibroblasts / IC50 for T. cruzi epimastigotes): 0.86 | IC50 [1]: 199 ± 49.9 µM | activity against the extracellular and replicative forms of T. cruzi (in words) [1]: did not show detectable levels of trypanocidal activity | cytotoxicity at 24 h, 16 µM [2]: 3.72 ± 1.14% | IC50 [3]: 171.7 ± 0.5 µM | EC50 [4, 7]: 1.91 µM | EC50 [4, 8]: 0.024 µM

CCc1c(-c2ccc[nH]2)[nH]c(C=NC2CCCCCC2)c1C [KAR425]
in vivo activity against P. yoelii infection (in words) (Plasmodium yoelii): potent in vivo activity

CC/N=C/c1[nH]c(-c2ccc[nH]2)c(CC)c1C [MM5]
IC50 [1]: 130 ± 34.7 µM | activity against the extracellular and replicative forms of T. cruzi (in words) [1]: did not show detectable levels of trypanocidal activity | anionophore activity (in words) [5]: very limited activity | EC50 (µM) HCO3–/Cl– ([5]; external bicarbonate): not active enough to calculate EC50 value | EC50 (µM) NO3–/Cl– ([5]; external nitrate): not active enough to calculate EC50 value

CCCCCC1=C/C(=C/c2[nH]c(-c3ccc[nH]3)cc2OC)N=C1C [Prodigiosin, prodigiosin]
minimal inhibitory concentration (MIC) (Enterococcus faecalis): 2 µM (≈ 0.647 µg/mL) | minimal inhibitory concentration (MIC) (Escherichia coli): 2 µM (≈ 0.647 µg/mL) | minimal inhibitory concentration (MIC) (Pseudomonas aeruginosa): 8 µM (≈ 2.59 µg/mL) | IC50 [6]: ≤ 800 nM | anionophore activity (in words) [5]: most active anionophore | EC50 [5, 7]: 0.06 µM | EC50 [5, 8]: 0.002 µM

CC1(C)CCC(c2ccc(Cl)cc2)=C(CN2CCN(c3ccc(C(=O)NS(=O)(=O)c4ccc(N[C@H](CCN5CCOCC5)CSc5ccccc5)c(S(=O)(=O)C(F)(F)F)c4)cc3)CC2)C1 [navitoclax]
effect on the viability of different parasites (in words) (different parasites): do not have an effect

CC1(C)CCC(CN2CCN(c3ccc(C(=O)NS(=O)(=O)c4ccc(NCC5CCOCC5)c([N+](=O)[O-])c4)c(Oc4cnc5[nH]ccc5c4)c3)CC2)=C(c2ccc(Cl)cc2)C1 [venetoclax]
effect on the viability of different parasites (in words) (different parasites): do not have an effect
